In US10112911B2, “Substituted cyanoguanidines as oral anti-virals” (Abbvie Inc, priority 2012, dated 2018) one finds EC50 data, which are given here for 30 molecules.

In this assay the test system is RSV (Group A, Long Strain). As to the kind of experiment: Cytopathetic effect (CPE) protection antiviral assay, MTT readout. The format is cell-based. Particulars: human respiratory syncytial virus, HEp-2, 96 h, HEp-2 cells, 0.2 MOI RSV, 4 days incubation, protection from CPE (Table 1); read-out: RSV EC50. The protocol:
HEp-2 cells and RSV (Group A, Long Strain) were obtained from the American Type Culture Collection (Manassas, Va.).
A cytopathetic effect (CPE) protection assay was performed to determine the ability of a compound to protect the cells from viral infection and thus the CPE induced by viral infection. 96-Well plates were first seeded with […] per well in Dulbecco's modified Eagle's medium (DMEM) containing 10% fetal bovine serum (FBS). One day after the cells were seeded, they were preincubated with serial dilutions of compounds prepared in 100 μL assay medium (DMEM mixed with F12 medium at a 1:1 ratio, supplemented with 2% FBS and 1 mM sodium pyruvate) for 1 hour at 37° C. 100 μL of assay medium containing 0.2 multiplicity of infection (MOI) of RSV was then added to each well of cells. In addition to wells containing infected cells incubated with compounds, each plate also contained replicates of two kinds of controls: (1) Virus control contained cells infected with 0.2 MOI of RSV in assay medium, (2) Uninfected cell control contained cells incubated with assay medium only. After 4 days of incubation at 37° C., the viability of cells was assessed using MTT (Thiazolyl blue tetrazolium bromide, Sigma). A stock solution of MTT, at a concentration of 4 mg/mL in phosphate-buffered saline, was added to all wells at 25 μL per well. Plates were further incubated for 4 hours, and each well was then treated with 50 μL of a solution containing 20% sodium dodecyl sulfate (SDS) and 0.02 N HCl. After an overnight incubation, the plates were measured on a BioTek® microtiter plate reader at wavelengths of 570 nm and 650 nm. The MTT detection is based on the fact that viable (uninfected) cells can reduce the tetrazolium salts into colored formazan products, which can then be quantitated by spectrometry. Based on the spectrometric absorbance of each sample, the percent of protection from CPE, which is an indicator of protection from viral infection, can be calculated for each compound and the 50% effective concentrations (EC50) can be calculated using a nonlinear regression curve fitting equation provided by the GraphPad Prism® 4 software.
Compounds were tested to determine both their antiviral and toxicity to determine their therapeutic window. Determination of the EC50 and TD50 of these active compounds were repeated one additional time to confirm the window.
Take `CC(C)CC1CN(c2cnc3ccccc3n2)CCN1/C(=N\C#N)Nc1cccc(F)c1` (stereo not drawn) [Example 1.40, N′-cyano-N-(3-fluorophenyl)-2-isobutyl-4-(quinoxalin-2-yl)piperazine-1-carboximidamide]: the EC50 was above 10 µM.

In the case of `CC(C)CC1CN(c2cnc3ccccc3n2)CCN1/C(=N\C#N)Nc1ccccc1Cl` (stereo not drawn) [Example 1.41, N-(2-chlorophenyl)-N′-cyano-2-isobutyl-4-(quinoxalin-2-yl)piperazine-1-carboximidamide], the EC50 amounted to 1.22 µM. As for `Cc1ccccc1N/C(=N/C#N)N1CCN(c2cnc3ccccc3n2)CC1C` (stereo not drawn) [Example 1.42, N′-cyano-2-methyl-N-(2-methylphenyl)-4-(quinoxalin-2-yl)piperazine-1-carboximidamide], the figure is above 10 µM; as for `Cc1ccccc1N/C(=N/C#N)N1CCN(c2cnc3ccccc3n2)CC12CCC2` [Example 1.43, N′-cyano-N-(2-methylphenyl)-8-(quinoxalin-2-yl)-5,8-diazaspiro[3.5]nonane-5-carboximidamide], above 10 µM; as for `Cc1ccccc1N/C(=N/C#N)N1CCN(c2cnc3ccccc3n2)CC12CC2` [Example 1.45, N′-cyano-N-(2-methylphenyl)-7-(quinoxalin-2-yl)-4,7-diazaspiro[2.5]octane-4-carboximidamide], above 10 µM.

For the molecule `Cc1ccccc1N/C(=N/C#N)N1CCN(c2cnc3ccccc3n2)CC1C(C)(C)C` (stereo not drawn) [Example 1.46, 2-tert-butyl-N′-cyano-N-(2-methylphenyl)-4-(quinoxalin-2-yl)piperazine-1-carboximidamide], the EC50 was above 10 µM. As for `CCC(C)C1CN(c2cnc3ccccc3n2)CCN1/C(=N\C#N)Nc1ccccc1C` (stereo not drawn) [Example 1.47, 2-sec-butyl-N′-cyano-N-(2-methylphenyl)-4-(quinoxalin-2-yl)piperazine-1-carboximidamide], the figure is above 1.38 µM; as for `Cc1ccccc1N/C(=N/C#N)N1CCN(c2cnc3ccccc3n2)CC1C1CCCCC1` (stereo not drawn) [Example 1.48, N′-cyano-2-cyclohexyl-N-(2-methylphenyl)-4-(quinoxalin-2-yl)piperazine-1-carboximidamide], 1.34 µM. As for `Cc1ccccc1N/C(=N/C#N)N1CCN(c2cnc3ccccc3n2)CC1CC1CCCCC1` (stereo not drawn) [Example 1.49, N′-cyano-2-(cyclohexylmethyl)-N-(2-methylphenyl)-4-(quinoxalin-2-yl)piperazine-1-carboximidamide], the figure is above 3.2 µM; as for `Cc1cc2ncc(N3CCN(/C(=N\C#N)Nc4ccccc4C)C(C(C)C)C3)nc2cc1C` (stereo not drawn) [Example 1.50, N′-cyano-4-(6,7-dimethylquinoxalin-2-yl)-2-isopropyl-N-(2-methylphenyl)piperazine-1-carboximidamide], above 3.2 µM; as for `Cc1ccccc1N/C(=N/C#N)N1CCN(c2cnc3cc(F)c(F)cc3n2)CC1C(C)C` (stereo not drawn) [Example 1.51, N′-cyano-4-(6,7-difluoroquinoxalin-2-yl)-2-isopropyl-N-(2-methylphenyl)piperazine-1-carboximidamide], 0.69 µM. Next, `Cc1ccccc1N/C(=N/C#N)N1CCN(c2nc3ccccc3nc2C)CC1C(C)C` (stereo not drawn) [Example 1.52, N′-cyano-2-isopropyl-N-(2-methylphenyl)-4-(3-methylquinoxalin-2-yl)piperazine-1-carboximidamide]: above 10 µM; `Cc1ccccc1N/C(=N/C#N)N1CCN(c2nc3ccccc3nc2C(F)(F)F)CC1C(C)C` (stereo not drawn) [Example 1.53, N′-cyano-2-isopropyl-N-(2-methylphenyl)-4-[3-(trifluoromethyl)quinoxalin-2-yl]piperazine-1-carboximidamide]: above 10 µM; `Cc1ccc2ncc(N3CCN(/C(=N\C#N)Nc4ccccc4C)C(C(C)C)C3)nc2c1` (stereo not drawn) [Example 1.56, N′-cyano-2-isopropyl-N-(2-methylphenyl)-4-(7-methylquinoxalin-2-yl)piperazine-1-carboximidamide]: 1.6 µM.

Turning to `Cc1ccccc1N/C(=N/C#N)N1CCN(c2cnc3cc(C(F)(F)F)ccc3n2)CC1C(C)C` (stereo not drawn) [Example 1.57, N′-cyano-2-isopropyl-N-(2-methylphenyl)-4-[6-(trifluoromethyl)quinoxalin-2-yl]piperazine-1-carboximidamide], the EC50 was 0.29 µM.

For the molecule `Cc1ccccc1N/C(=N/C#N)N1CCN(c2cnc3cc(Cl)c(Cl)cc3n2)CC1C(C)C` (stereo not drawn) [Example 1.58, N′-cyano-4-(6,7-dichloroquinoxalin-2-yl)-2-isopropyl-N-(2-methylphenyl)piperazine-1-carboximidamide], the EC50 is above 3.2 µM. Next, `Cc1ccccc1N/C(=N/C#N)N1CCN(c2cnc3cccc(C(F)(F)F)c3n2)CC1C(C)C` (stereo not drawn) [Example 1.59, N′-cyano-2-isopropyl-N-(2-methylphenyl)-4-[8-(trifluoromethyl)quinoxalin-2-yl]piperazine-1-carboximidamide]: above 3.2 µM; `Cc1ccccc1N/C(=N/C#N)N1CCN(c2cnc3ccc(F)cc3n2)CC1C(C)C` (stereo not drawn) [Example 1.60, N′-cyano-4-(7-fluoroquinoxalin-2-yl)-2-isopropyl-N-(2-methylphenyl)piperazine-1-carboximidamide]: 1.05 µM; `Cc1ccccc1N/C(=N/C#N)N1CCN(c2ccc3ccccc3n2)CC1C(C)C` (stereo not drawn) [Example 1.61, N′-cyano-2-isopropyl-N-(2-methylphenyl)-4-(quinolin-2-yl)piperazine-1-carboximidamide]: above 6.6 µM. Next, `Cc1ccccc1N/C(=N/C#N)N1CCN(c2ncc3ccccc3n2)CC1C(C)C` (stereo not drawn) [Example 1.62, N′-cyano-2-isopropyl-N-(2-methylphenyl)-4-(quinazolin-2-yl)piperazine-1-carboximidamide]: above 32 µM; `Cc1ccccc1NC(=NC#N)N1CCN(c2cncc(N3CCOCC3)n2)CC1C(C)C` (stereo not drawn) [Example 1.63, N′-cyano-2-isopropyl-N-(2-methylphenyl)-4-[6-(morpholin-4-yl)pyrazin-2-yl]piperazine-1-carboximidamide]: above 10 µM. As for `Cc1ccccc1NC(=NC#N)N1CCN(c2nc(C)c(C)c(NC3CCCCC3)n2)CC1C(C)C` (stereo not drawn) [Example 1.64, N′-cyano-4-[4-(cyclohexylamino)-5,6-dimethylpyrimidin-2-yl]-2-isopropyl-N-(2-methylphenyl)piperazine-1-carboximidamide], the figure is above 10 µM; as for `Cc1ccccc1NC(=NC#N)N1CCN(c2ccc3nccnc3n2)CC1C(C)C` (stereo not drawn) [Example 1.65, N′-cyano-2-isopropyl-N-(2-methylphenyl)-4-(pyrido[2,3-b]pyrazin-6-yl)piperazine-1-carboximidamide], 5.9 µM; as for `Cc1ccccc1NC(=NC#N)N1CCN(c2ccc3cccnc3n2)CC1C(C)C` (stereo not drawn) [Example 1.66, N′-cyano-2-isopropyl-N-(2-methylphenyl)-4-(1,8-naphthyridin-2-yl)piperazine-1-carboximidamide], 1.5 µM.

On to `Cc1ccccc1NC(=NC#N)N1CCN(c2cnc3cc(F)ccc3n2)C[C@@H]1C(C)C` [Example 1.67, (2S)—N′-cyano-4-(6-fluoroquinoxalin-2-yl)-2-isopropyl-N-(2-methylphenyl)piperazine-1-carboximidamide], for which the EC50 turned out to be 0.36 µM. As for `Cc1ccc2ccc(N3CCN(C(=NC#N)Nc4ccccc4C)C(C(C)C)C3)nc2n1` (stereo not drawn) [Example 1.68, N′-cyano-2-isopropyl-4-(7-methyl-1,8-naphthyridin-2-yl)-N-(2-methylphenyl)piperazine-1-carboximidamide], the figure is above 10 µM. In the case of `Cc1ccccc1NC(=NC#N)N1CCN(c2nc3ccccc3n2C)CC1C(C)C` (stereo not drawn) [Example 1.69, N′-cyano-2-isopropyl-4-(1-methyl-1H-benzimidazol-2-yl)-N-(2-methylphenyl)piperazine-1-carboximidamide], the EC50 turned out to be 2.99 µM.

Take `Cc1ccccc1NC(=NC#N)N1CCN(c2cnc3ccccc3n2)C(C(C)C)C1` (stereo not drawn) [Example 1.70, N′-cyano-3-isopropyl-N-(2-methylphenyl)-4-(quinoxalin-2-yl)piperazine-1-carboximidamide]: the EC50 was above 10 µM. As for `Cc1ccncc1NC(=NC#N)N1CCN(c2cnc3ccccc3n2)CC1C(C)C` (stereo not drawn) [Example 1.72, N′-cyano-2-isopropyl-N-(4-methylpyridin-3-yl)-4-(quinoxalin-2-yl)piperazine-1-carboximidamide], the figure is above 5.37 µM. Next, `Cc1ncccc1N/C(=N/C#N)N1CCN(c2cnc3ccccc3n2)CC1C(C)C` (stereo not drawn) [Example 1.73, N′-cyano-2-isopropyl-N-(2-methylpyridin-3-yl)-4-(quinoxalin-2-yl)piperazine-1-carboximidamide]: above 10 µM.
